Measured values: the supplement of paper PMC11061612

Legend:
Experiment in all cases: Bliss excess, mean over the matrix (fraction); higher = more synergy
[1] = tested on: HCT-15 (Colorectal Carcinoma)
Outline: (§1)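 Bliss excess equals the observed combination effect minus the expected value EA + EB − EA·EB, where EA and EB are the effects of each agent alone. Combination Emax is the second-highest inhibition within the matrix. Inhibition was scaled from CellTiter-Glo 2.0 luminescence, with 0 set by vehicle wells and 1 by blank wells, after 72 hours of two-drug dosing of cells plated in 1536-well plates.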

[2] = tested on: PC-3_[JPC-3] (Lung Adenocarcinoma)
Outline: as §1

[3] = tested on: LN-229 (Glioblastoma)
Outline: as §1

[4] = tested on: MFE-280 (Endometrial Carcinoma)
Outline: as §1

[5] = tested on: NCI-H2342 (Lung Adenocarcinoma)
Outline: as §1

[6] = tested on: HEC-1 (Endometrial Carcinoma)
Outline: as §1

[7] = tested on: COLO-680N (Esophageal Squamous Cell Carcinoma)
Outline: as §1

[8] = tested on: OVMIU (Ovarian Carcinoma)
Outline: as §1

[9] = tested on: SHP-77 (Small Cell Lung Carcinoma)
Outline: as §1

[10] = tested on: RERF-GC-1B (Gastric Carcinoma)
Outline: as §1

[11] = tested on: SK-PN-DW (Other Solid Carcinomas)
Outline: as §1

[12] = tested on: NCI-H23 (Lung Adenocarcinoma)
Outline: as §1

[13] = tested on: OAW-42 (Ovarian Carcinoma)
Outline: as §1

[14] = tested on: OPM-2 (Plasma Cell Myeloma)
Outline: as §1

[15] = tested on: IST-MES1 (Mesothelioma)
Outline: as §1

[16] = tested on: PANC-03-27 (Pancreatic Carcinoma)
Outline: as §1

[17] = tested on: NCI-H446 (Small Cell Lung Carcinoma)
Outline: as §1

[18] = tested on: FADU (Head and Neck Carcinoma)
Outline: as §1

[19] = tested on: RCM-1 (Colorectal Carcinoma)
Outline: as §1

[20] = tested on: MKN45 (Gastric Carcinoma)
Outline: as §1

| Structure (SMILES) | Bliss excess [1] | Bliss excess [2] | Bliss excess [3] | Bliss excess [4] | Bliss excess [5] | Bliss excess [6] | Bliss excess [7] | Bliss excess [8] | Bliss excess [9] | Bliss excess [10] | Bliss excess [11] | Bliss excess [12] | Bliss excess [13] | Bliss excess [14] | Bliss excess [15] | Bliss excess [16] | Bliss excess [17] | Bliss excess [18] | Bliss excess [19] | Bliss excess [20] |
| --- | --- | --- | --- | --- | --- | --- | --- | --- | --- | --- | --- | --- | --- | --- | --- | --- | --- | --- | --- | --- |
| CN(CCO)CC[C@H](CSc1ccccc1)Nc1ccc(S(=O)(=O)NC(=O)c2ccc(N3CCC([C@@H](O)c4ccccc4-c4ccc(Cl)cc4)CC3)cc2)cc1S(=O)(=O)C(F)(F)F [AZD4320] + Cc1cc2ncnn2cc1Nc1ncc2c(n1)n(C1CCOCC1)c(=O)n2C [AZD7648] (first compound max 1 µM, 7x7, partner max 10 µM) | -0.0202 | -0.0635 | -0.0393 | -0.0471 | -0.0475 | -0.0402 | -0.0437 | -0.0652 | -0.0012 | 0.0231 | -0.0411 | -0.0298 | -0.0118 | 0.0418 | -0.042 | -0.061 | 0.0292 | -0.016 | -0.0153 | -0.0744 |
| COc1nnc2ccc(N3CCC(c4ccc(OCCN5CCN(C)C(=O)[C@H]5C)cc4)CC3)nn12 [AZD5153] + Cn1cnc2c(F)c(Nc3ccc(Br)cc3Cl)c(C(=O)NOCCO)cc21 [Selumetinib] (first compound max 1 µM, 7x7, partner max 10 µM) | 0.0243 | 0.0189 | -0.0426 | 0.0114 | 0.0267 | -0.0115 | 0.0131 | -0.0452 | -0.134 | 0.0579 | -0.0326 | -0.0027 | 0.02 | -0.0136 | 0.0054 | 0.0131 | 0.033 | -0.015 | -0.008 | -0.0237 |
| NC1(C(=O)N[C@@H](CCO)c2ccc(Cl)cc2)CCN(c2ncnc3[nH]ccc23)CC1 [Capivasertib] + C[C@@H]1COCCN1C2=NC(=NC(=C2)C3(CC3)[S@](=N)(=O)C)C4=C5C=CNC5=NC=C4 [AZD6738] (first compound max 10 µM, 7x7, partner max 10 µM) | -0.0104 | -0.0356 | -0.0405 | -0.0742 | -0.0709 | -0.0205 | -0.0158 | -0.0471 | -0.0078 | -0.0076 | -0.0412 | -0.0434 | 0.0034 | -0.0746 | 0.0194 | -0.0537 | -0.0166 | 0.0096 | -0.0863 | -0.0553 |
| NC1(C(=O)N[C@@H](CCO)c2ccc(Cl)cc2)CCN(c2ncnc3[nH]ccc23)CC1 [Capivasertib] + CC(=O)c1c(C)c2cnc(Nc3ccc(N4CCNCC4)cn3)nc2n(C2CCCC2)c1=O [Palbociclib] (first compound max 10 µM, 7x7, partner max 10 µM) | 0.0152 | 0.002 | -0.0387 | -0.0624 | 0.0214 | -0.0115 | -0.0467 | -0.0168 | -0.142 | -0.0203 | -0.0603 | 0.008 | -0.0305 | 0.0472 | -0.0632 | -0.0187 | -0.03 | -0.0259 | -0.0058 | 0.0256 |
| CC(=O)c1c(C)c2cnc(Nc3ccc(N4CCNCC4)cn3)nc2n(C2CCCC2)c1=O [Palbociclib] + Cc1c2c(nn1C)CSCc1cc(n(C)n1)CSc1cc(c3ccccc3c1)OCCCc1c(C(=O)O)n(C)c3c-2c(Cl)ccc13 [AZD5991] (first compound max 10 µM, 7x7, partner max 1 µM) | 0.0011 | -0.0377 | -0.057 | -0.0333 | -0.0063 | -0.0336 | -0.0341 | -0.0416 | -0.0247 | -0.0116 | -0.0194 | -0.0562 | 0.0143 | 0.0009 | -0.0111 | -0.0242 | 0.0062 | -0.126 | -0.0561 | -0.0556 |
| COc1cccc(OCCCN)c1-c1cc(Nc2cnc(C#N)cn2)n[nH]1 [Prexasertib] + CCc1c2c(nc3ccc(O)cc13)-c1cc3c(c(=O)n1C2)COC(=O)[C@]3(O)CC [SN-38] (first compound max 1 µM, 7x7, partner max 0.3 µM) | 0.051 | -0.0729 | -0.022 | 0.115 | -0.0703 | 0.0893 | 0.0609 | -0.0921 | 0.121 | 0.0318 | -0.0672 | -0.0001 | -0.0263 | -0.0125 | -0.026 | -0.0381 | 0.0756 | -0.0233 | -0.0729 | -0.0493 |
| Cn1cnc2c(F)c(Nc3ccc(Br)cc3Cl)c(C(=O)NOCCO)cc21 [Selumetinib] + C=CCn1c(=O)c2cnc(Nc3ccc(N4CCN(C)CC4)cc3)nc2n1-c1cccc(C(C)(C)O)n1 [AZD1775] (first compound max 10 µM, partner max 1 µM) | -0.0198 | -0.0332 | -0.0115 | -0.0485 | -0.0366 | -0.0448 | 0.0147 | -0.0888 | 0.0141 | 0.025 | 0.0095 | 0.0223 | -0.0694 | -0.0124 | -0.0955 | -0.0164 | -0.0441 | -0.0284 | -0.0359 | -0.0765 |
| CC1(C)CCC(CN2CCN(c3ccc(C(=O)NS(=O)(=O)c4ccc(NCC5CCOCC5)c([N+](=O)[O-])c4)c(Oc4cnc5[nH]ccc5c4)c3)CC2)=C(c2ccc(Cl)cc2)C1 [Venetoclax] + C1CN(CCC1(C(=O)N[C@@H](CCO)C2=CC=C(C=C2)Cl)N)C3=NC=NC4=C3C=CN4 [Capivasertib] (first compound max 1 µM, 7x7, partner max 3 µM) | -0.0383 | -0.0399 | -0.0394 | -0.0377 | -0.0359 | -0.0465 | -0.0482 | -0.112 | -0.0797 | -0.0297 | -0.0892 | -0.0081 | -0.0539 | 0.0534 | -0.033 | -0.0881 | -0.0257 | -0.0382 | -0.0293 | -0.0205 |
| CC1(C)CCC(CN2CCN(c3ccc(C(=O)NS(=O)(=O)c4ccc(NCC5CCOCC5)c([N+](=O)[O-])c4)c(Oc4cnc5[nH]ccc5c4)c3)CC2)=C(c2ccc(Cl)cc2)C1 [Venetoclax] + Cn1cnc2c(F)c(Nc3ccc(Br)cc3Cl)c(C(=O)NOCCO)cc21 [Selumetinib] (first compound max 1 µM, 7x7, partner max 3 µM) | -0.0231 | -0.0715 | -0.0372 | -0.0138 | -0.0628 | -0.0315 | -0.0243 | -0.0641 | 0.105 | 0.0095 | -0.0308 | -0.0208 | -0.0283 | -0.0093 | -0.0381 | 0.0047 | -0.0372 | 0.0212 | -0.0369 | -0.0574 |
| COc1cc2ncnc(Nc3ccc(F)c(Cl)c3)c2cc1OCCCN1CCOCC1 [Gefitinib] + CC(C)n1c(=O)n(C)c2cnc3cc(F)c(-c4ccc(OCCCN5CCCCC5)nc4)cc3c21 [AZD1390] (first compound max 10 µM, 7x7, partner max 0.3 µM) | -0.0533 | -0.03 | -0.077 | -0.0676 | -0.052 | -0.0442 | -0.0252 | -0.0564 | -0.0471 | -0.092 | -0.0293 | -0.0466 | -0.0384 | -0.0151 | -0.0524 | -0.0223 | -0.0082 | -0.0619 | -0.0395 | -0.046 |
| CC1(C)CCC(CN2CCN(c3ccc(C(=O)NS(=O)(=O)c4ccc(NCC5CCOCC5)c([N+](=O)[O-])c4)c(Oc4cnc5[nH]ccc5c4)c3)CC2)=C(c2ccc(Cl)cc2)C1 [Venetoclax] + C[C@@H](Nc1cc(F)cc(F)c1)c1cc(C(=O)N(C)C)cc2c(=O)cc(N3CCOCC3)oc12 [AZD8186] (first compound max 1 µM, 7x7, partner max 3 µM) | -0.0184 | -0.0326 | -0.0267 | -0.0525 | -0.0643 | -0.0336 | -0.0276 | -0.129 | 0.0205 | -0.028 | -0.0038 | 0.007 | -0.047 | -0.0134 | -0.0423 | -0.0415 | 0.135 | -0.0291 | -0.0495 | -0.057 |
| CC1(C)CCC(CN2CCN(c3ccc(C(=O)NS(=O)(=O)c4ccc(NCC5CCOCC5)c([N+](=O)[O-])c4)c(Oc4cnc5[nH]ccc5c4)c3)CC2)=C(c2ccc(Cl)cc2)C1 [Venetoclax] + CCN(CCO)CCCOc1ccc2c(Nc3cc(CC(=O)Nc4cccc(F)c4)[nH]n3)ncnc2c1 [AZD2811] (first compound max 1 µM, 7x7, partner max 1 µM) | 0.0051 | -0.095 | -0.014 | 0.0557 | -0.019 | -0.0262 | -0.0166 | -0.0851 | 0.0432 | 0.0028 | -0.0703 | -0.0051 | -0.0059 | 0.085 | -0.0327 | -0.028 | -0.0077 | 0.0341 | -0.0144 | -0.066 |
| CS(=O)(=O)CCNCc1ccc(-c2ccc3ncnc(Nc4ccc(OCc5cccc(F)c5)c(Cl)c4)c3c2)o1 [Lapatinib] + C[C@@H](Oc1cc(-c2cnn(C3CCNCC3)c2)cnc1N)c1c(Cl)ccc(F)c1Cl [Crizotinib] (first compound max 10 µM, 7x7, partner max 10 µM) | -0.0205 | -0.0824 | -0.0396 | -0.0226 | -0.0006 | -0.021 | -0.017 | -0.0097 | -0.0004 | -0.0237 | -0.0722 | -0.0265 | -0.0033 | -0.0611 | -0.0937 | -0.0111 | -0.0344 | -0.0302 | -0.0107 | -0.0063 |
| COc1nnc2ccc(N3CCC(c4ccc(OCCN5CCN(C)C(=O)[C@H]5C)cc4)CC3)nn12 [AZD5153] + C[C@@H]1COCCN1C2=NC(=NC(=C2)C3(CC3)[S@](=N)(=O)C)C4=C5C=CNC5=NC=C4 [AZD6738] (first compound max 1 µM, 7x7, partner max 10 µM) | 0.0267 | 0.0651 | 0.0224 | -0.0103 | 0.0133 | 0.0625 | 0.0046 | -0.0208 | 0.0591 | 0.0429 | -0.0638 | -0.0105 | 0.0752 | -0.0245 | -0.0183 | -0.091 | 0.0153 | 0.0155 | -0.115 | -0.0649 |
